Patent US8889712B2, “IAP antagonists” (Bristol-Myers Squibb Company, priority 2012, dated 2014)
Where a name gives a salt, the structure may show the parent alone. Read-outs that look alike come from different tables or passages of the source.

Columns and labels:
XIAP BIR3 = target: T1, XIAP BIR3 (Homo sapiens, UniProt P98170); assay: XIAP-BIR3/SMAC Homogeneous Time Resolved Fluorescence (HTRF) Assay; format: binding
T1 construct: His-BIR3 (241-356, XIAP)
Description: A. XIAP-BIR3/SMAC Homogeneous Time Resolved Fluorescence (HTRF) Assay Assays were performed in black, flat-bottom, 384-well plates. […] The reaction was incubated at room temperature for 60 minutes, following which 10 μl of mouse anti-6×His-terbium labeled Fab (Medarex, Cis-bio) was added to the reaction (40 μl) for an additional 30 minute incubation. […] Compounds were dissolved at 3 mM in dimethylsulfoxide (DMSO) and evaluated at eleven serially diluted concentrations. IC50 and Ki values were derived by non-linear regression analysis.

XIAP BIR2-3 = target: T2, XIAP BIR2-3 (Homo sapiens, UniProt P98170, C202A/C213G); assay: XIAP-BIR2-3 dimeric SMAC Peptide Homogeneous Time Resolved Fluorescence (HTRF) Assay; format: binding
T2 construct: His-BIR2-3 (125-356, C202A/C213G, XIAP)
T2 sequence (P98170 125-356 C202A/C213G): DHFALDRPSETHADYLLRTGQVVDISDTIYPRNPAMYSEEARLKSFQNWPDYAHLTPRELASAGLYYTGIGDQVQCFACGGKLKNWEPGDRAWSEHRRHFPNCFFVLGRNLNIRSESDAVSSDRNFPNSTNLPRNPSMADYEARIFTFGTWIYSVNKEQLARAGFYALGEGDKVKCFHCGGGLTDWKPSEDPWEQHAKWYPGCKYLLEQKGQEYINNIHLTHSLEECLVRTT
Description: B. […] Assays were performed in black, flat-bottom, 384-well plates. […] Compounds were dissolved at 3 mM in dimethylsulfoxide (DMSO) and evaluated at eleven serially diluted concentrations. IC50 and Ki values were derived by non-linear regression analysis.

[1] = 1 nM N-His-BIR3 (241-356, XIAP), 5 nM fluorescein labeled SMAC peptide, HTRF signal, read-out: XIAP BIR3 IC50
[2] = 0.5 nM N-His-BIR2-3 (125-356, C202A/C213G, XIAP), 20 nM fluorescein labeled dimeric SMAC peptide, HTRF signal, read-out: XIAP BIR2-3 IC50

T1 sequence (P98170 241-356): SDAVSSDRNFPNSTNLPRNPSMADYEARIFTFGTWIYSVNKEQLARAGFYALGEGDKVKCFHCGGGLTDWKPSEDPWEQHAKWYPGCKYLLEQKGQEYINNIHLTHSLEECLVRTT

SMILES	IC50 (XIAP BIR3)	IC50 (XIAP BIR2-3)	IC50 (XIAP BIR3; [1])	IC50 (XIAP BIR2-3; [2])
CN[C@@H](C)C(=O)N[C@H](C(=O)N1C[C@@H](c2ccc3c(c2)CN(C(=O)[C@@H](NC(=O)[C@H](C)NC)C(C)(C)C)[C@H](C(=O)N[C@@H]2CCCc4ccccc42)C3)C[C@H]1C(=O)N[C@@H](Cc1ccccc1)C(=O)Nc1ccccc1)C(C)(C)C [Example 68, (S)-2-((S)-3,3-Dimethyl-2-((S)-2-(methylamino)propanamido)butanoyl)-7-((3R,5S)-1-((S)-3,3-dimethyl-2-((S)-2-(methylamino)propanamido)butanoyl)-5-(((S)-1-oxo-3-phenyl-1-(phenylamino)propan-2-yl)carbamoyl)pyrrolidin-3-yl)-N-((R)-1,2,3,4-tetrahydronaphthalen-1-yl)-1,2,3,4-tetrahydroisoquinoline-3-carboxamide]	4.9 nM	1.3 nM		
CN[C@@H](C)C(=O)N[C@H](C(=O)N1C[C@@H](c2ccc3c(c2)CN(C(=O)[C@@H](NC(=O)[C@H](C)NC)C(C)(C)C)[C@H](C(=O)N[C@@H]2CCCc4ccccc42)C3)C[C@H]1C(=O)N[C@@H](Cc1ccccc1)C(=O)Nc1ccc(-n2cncn2)cc1)C(C)(C)C [Example 65, (S)-7-((3R,5S)-5-(((S)-1-((4-(1H-1,2,4-Triazol-1-yl)phenyl)amino)-1-oxo-3-phenylpropan-2-yl)carbamoyl)-1-((S)-3,3-dimethyl-2-((S)-2-(methylamino)propanamido)butanoyl)pyrrolidin-3-yl)-2-((S)-3,3-dimethyl-2-((S)-2-(methylamino)propanamido)butanoyl)-N-((R)-1,2,3,4-tetrahydronaphthalen-1-yl)-1,2,3,4-tetrahydroisoquinoline-3-carboxamide]			5.4 nM	1.6 nM
CN[C@@H](C)C(=O)N[C@H](C(=O)N1Cc2cc([C@H]3C[C@@H](C(=O)N[C@@H]4CCCc5ccccc54)N(C(=O)[C@@H](NC(=O)[C@H](C)NC)C(C)(C)C)C3)ccc2C[C@H]1C(=O)N[C@@H]1CCCc2cc(OC)ccc21)C(C)(C)C [Example 37, (S)-2-((S)-3,3-Dimethyl-2-((S)-2-(methylamino)propanamido)butanoyl)-7-((3R,5S)-1-((S)-3,3-dimethyl-2-((S)-2-(methylamino)propanamido)butanoyl)-5-(((R)-1,2,3,4-tetrahydronaphthalen-1-yl)carbamoyl)pyrrolidin-3-yl)-N-((R)-6-methoxy-1,2,3,4-tetrahydronaphthalen-1-yl)-1,2,3,4-tetrahydroisoquinoline-3-carboxamide]			2.9 nM	1.8 nM
CN[C@@H](C)C(=O)N[C@H](C(=O)N1Cc2cc([C@H]3C[C@@H](C(=O)N[C@@H]4CCCc5ccccc54)N(C(=O)[C@@H](NC(=O)[C@H](C)NC)C(C)(C)C)C3)ccc2C[C@H]1C(=O)N[C@H](CO)c1ccccc1F)C(C)(C)C [Example 35, (S)-2-((S)-3,3-Dimethyl-2-((S)-2-(methylamino)propanamido)butanoyl)-7-((3R,5S)-1-((S)-3,3-dimethyl-2-((S)-2-(methylamino)propanamido)butanoyl)-5-(((R)-1,2,3,4-tetrahydronaphthalen-1-yl)carbamoyl)pyrrolidin-3-yl)-N-((S)-1-(2-fluorophenyl)-2-hydroxyethyl)-1,2,3,4-tetrahydroisoquinoline-3-carboxamide]			2.5 nM	1.3 nM
CN[C@@H](C)C(=O)N[C@H](C(=O)N1C[C@@H](c2ccc3c(c2)CN(C(=O)[C@@H](NC(=O)[C@H](C)NC)C(C)(C)C)[C@H](C(=O)N[C@@H]2CCCc4ccccc42)C3)C[C@H]1C(=O)N[C@@H](Cc1ccccc1)C(=O)O)C(C)(C)C [Example 77, (S)-2-((2S,4R)-1-((S)-3,3-Dimethyl-2-((S)-2-(methylamino)propanamido)butanoyl)-4-((S)-2-((S)-3,3-dimethyl-2-((S)-2-(methylamino)propanamido)butanoyl)-3-(((R)-1,2,3,4-tetrahydronaphthalen-1-yl)carbamoyl)-1,2,3,4-tetrahydroisoquinolin-7-yl)pyrrolidine-2-carboxamido)-3-phenylpropanoic acid]			1.7 nM	0.8 nM
CN[C@@H](C)C(=O)N[C@H](C(=O)N1Cc2cc(C(=O)N[C@H]3C[C@@H](C(=O)N[C@@H]4CCCc5ccccc54)N(C(=O)[C@@H](NC(=O)[C@H](C)NC)C(C)(C)C)C3)ccc2C[C@H]1C(=O)N[C@@H]1CCCc2ccccc21)C1CCCC1 [Example 12, (S)-2-((S)-2-Cyclopentyl-2-((S)-2-(methylamino)propanamido)acetyl)-N^7-((3S,5S)-1-((S)-3,3-dimethyl-2-((S)-2-(methylamino)propanamido)butanoyl)-5-(((R)-1,2,3,4-tetrahydronaphthalen-1-yl)carbamoyl)pyrrolidin-3-yl)-N^3-((R)-1,2,3,4-tetrahydronaphthalen-1-yl)-1,2,3,4-tetrahydroisoquinoline-3,7-dicarboxamide]			19 nM	15 nM
CN[C@@H](C)C(=O)N[C@H](C(=O)N1C[C@@H](NC(=O)c2ccc3c(c2)CN(C(=O)[C@@H](NC(=O)[C@H](C)NC)C24CC5CC(CC(C5)C2)C4)[C@H](C(=O)NC2CCCc4ccccc42)C3)C[C@H]1C(=O)NC1CCCc2ccccc21)C(C)(C)C (stereo partly drawn) [Example 10, (S)-2-((S)-2-((3S,5S,7S)-Adamantan-1-yl)-2-((S)-2-(methylamino)propanamido)acetyl)-N^7-((3S,5S)-1-((S)-3,3-dimethyl-2-((S)-2-(methylamino)propanamido)butanoyl)-5-(((R)-1,2,3,4-tetrahydronaphthalen-1-yl)carbamoyl)pyrrolidin-3-yl)-N^3-((R)-1,2,3,4-tetrahydronaphthalen-1-yl)-1,2,3,4-tetrahydroisoquinoline-3,7-dicarboxamide]			63 nM	4 nM
CN[C@@H](C)C(=O)N[C@H](C(=O)N1CC(c2ccc3c(c2)CN(C(=O)[C@@H](NC(=O)[C@H](C)NC)C24CC5CC(CC(C5)C2)C4)[C@H](C(=O)NC2CCCc4ccccc42)C3)C[C@H]1C(=O)NC1CCCc2ccccc21)C(C)(C)C (stereo partly drawn) [Example 87, (S)-2-((S)-2-((3S,5S,7S)-Adamantan-1-yl)-2-((S)-2-(methylamino)propanamido)acetyl)-7-((3R,5S)-1-((S)-3,3-dimethyl-2-((S)-2-(methylamino)propanamido)butanoyl)-5-(((R)-1,2,3,4-tetrahydronaphthalen-1-yl)carbamoyl)pyrrolidin-3-yl)-N—((R)-1,2,3,4-tetrahydronaphthalen-1-yl)-1,2,3,4-tetrahydroisoquinoline-3-carboxamide, 2 TFA]			7.3 nM	5.9 nM
CN[C@@H](C)C(=O)N[C@H](C(=O)N1Cc2cc([C@H]3C[C@@H](C(=O)N[C@H](COC)Cc4ccccc4)N(C(=O)[C@@H](NC(=O)[C@H](C)NC)C(C)(C)C)C3)ccc2C[C@H]1C(=O)N[C@H](COC)Cc1ccccc1)C(C)(C)C [Example 84, (S)-2-((S)-3,3-Dimethyl-2-((S)-2-(methylamino)propanamido)butanoyl)-7-((3R,5S)-1-((S)-3,3-dimethyl-2-((S)-2-(methylamino)propanamido)butanoyl)-5-(((S)-1-methoxy-3-phenylpropan-2-yl)carbamoyl)pyrrolidin-3-yl)-N-((S)-1-methoxy-3-phenylpropan-2-yl)-1,2,3,4-tetrahydroisoquinoline-3-carboxamide]			31.4 nM	8.1 nM
